# Tests used:
# [1] = system: mouse RAW264.7 macrophage cell line; assay: Actin ring formation in osteoclasts induced by RANKL (immunofluorescence); format: cell-based; conditions: peptide 50 and 100 μg/ml with RANKL, 4 days, FIG. 12
# Experimental: In addition to the results of Experimental Examples 9 and 10, in order to further confirm the effect of inhibiting osteoclast differentiation according to the treatment with the peptide containing the amino acid sequence of SEQ ID NO: 1 of the present invention, mouse RAW264. […] After removing the medium, the cells were washed three times with cooled PBS and fixed with 4% paraformaldehyde for 30 minutes. The cells were washed three times with cooled PBS for 5 minutes, and then the cells were permeabilized with 0.3% Triton X-100 in PBS for 30 minutes. The cells were washed three times with cooled PBS for 5 minutes, and the cells were blocked with filtered 3% BSA in PBS for 1 hour with stirring. Incubation was performed with primary antibodies (Rhodamin (Red) [Invitrogen™]) diluted to 1:100 with a blocking medium with stirring for 2 hours. The cells were blocked from light and washed three times with PBS for 15 minutes with stirring, DAPI mounting medium (VECTASHIELD® MOUNTING MEDIUM with DAPI) was added, and then each well was covered with a cover slip and observed with a microscope.
# [2] = system: human C28/12 chondrocyte cell line; assay: ECM production in chondrocytes, alcian blue staining; format: cell-based; conditions: peptide 30, 50, 100, 150 μg/ml, day 6, FIG. 2
# Experimental: In order to confirm the cartilage regeneration effect of treatment with the peptide of the present invention containing the amino acid sequence of SEQ ID NO: 1, human-derived chondrocytes were treated with the peptide of SEQ ID NO: 1, and then it was confirmed whether there was an increase in formation of glycosaminoglycan, which is an ECM component.
# (§1) After removing the medium on day 6, 60 μl of 3.7% formalin was added to the 96-well plate to be stained and fixed for 1 minute. After removing the 3.7% formalin, 70 μl of an alcian blue staining solution (50 ml of 3% acetic acid+0.5 g of 1% Asian blue 8GX, pH 2.5) was added, and incubation was performed at 37° C. for 24 hours. Thereafter, the staining solution was removed, washing with triple distilled water and drying were performed, and then observation was performed with a microscope.
# human AD-MSC cells = assay: ECM gene expression in mesenchymal stem cells (RT-PCR); format: cell-based; conditions: peptide 50 and 100 μg/ml, days 3, 7, 11, FIGS. 7A to 7C
# Experimental: Adipose-derived mesenchymal stem cells were treated with the peptide containing the amino acid sequence of SEQ ID NO: 1, and then it was confirmed whether there was an increase in expression of cartilage oligomeric matrix protein (COMP), collagen type 11A (COL 11A), PCP, and ACAN (aggrecan) genes associated with the ECM production.
# After removing the medium on days 3, 7, and 11, cells were harvested and RNA was isolated. After synthesizing cDNA using a cDNA synthesis kit (Intron, Korea), PCR was performed for COMP, COL 11A, PCP, ACAN, and GAPDH genes using PCR pre-mix (Intron, Korea).
# mouse RAW264.7 cell line [3] = assay: Cytotoxicity / cell proliferation, CCK-8 assay; format: cell-based; conditions: peptide 10, 30, 50, 100, 150 μg/ml, 3 days
# Experimental: The effect of the peptide of the present invention on cell proliferation was confirmed using CCK-8 assay. CCK-8 reagent is reduced by cellular dehydrogenase to produce a colored product, and the proliferation of cells may be confirmed through a difference in absorbance using this.
# After removing the medium, CCK-8 solution (Dojindo, CCK-8 kit) was diluted 10 times in the culture medium and treated at 100 μl each. During incubation at 37° C., absorbance at a wavelength of 450 nm was measured using a microplate reader at 30-minute intervals.
# [4] = system: human adipose-derived mesenchymal stem cells (AD-MSCs); assay: Differentiation of mesenchymal stem cells into chondrocytes and ECM production, alcian blue staining; format: cell-based; conditions: peptide 30, 50, 100, 150 μg/ml, day 15, FIG. 5
# Experimental: Adipose-derived mesenchymal stem cells were treated with the peptide containing the amino acid sequence of SEQ ID NO: 1, and then the effect on chondrogenic differentiation of the stem cells and ECM production was confirmed.
# as §1, with “15,” for “6,”
# mouse RAW264.7 cell line [5] = assay: Osteoclast differentiation induced by RANKL, TRAP staining; format: cell-based; conditions: peptide 10 to 150 μg/ml with RANKL, 4 days, FIG. 10A
# Experimental: After removing the medium, the cells were fixed for 30 seconds and washed twice with double distilled water. Staining was performed with 100 μl of a TRAP staining solution (acid phosphatase kit, Sigma aldrich) at 37° C. for 30 minutes. Thereafter, the staining solution was removed, washing with double distilled water three times and drying were performed, and then observation was performed with a microscope.
# [6] = system: human C28/12 chondrocyte cell line; assay: ECM gene expression in chondrocytes (RT-PCR); format: cell-based; conditions: peptide 50 and 100 μg/ml, day 9, mRNA, FIG. 3
# Experimental: Human-derived chondrocytes were treated with the peptide containing the amino acid sequence of SEQ ID NO: 1, and then it was confirmed whether there was an increase in mRNA expression of collagen type II (COL2A1), aggrecan (ACAN), and proteoglycan core protein (PCP), which are ECM components, and GAPDH gene, which is a control.
# To this end, human C28/12 chondrocyte cell line was distributed in a 6-well plate at a density of 8.9×10^4 cells/well and cultured in DMEM medium (cat. 11995-065, Gibco) for 24 hours. […] After removing the medium on day 9, cells were harvested and RNA was isolated. After synthesizing cDNA using a cDNA synthesis kit (Intron, Korea), PCR was performed for collagen type II, ACAN, PCP, and GAPDH genes using PCR pre-mix (Intron, Korea).
# NFATc1 protein = NFATc1 protein in RANKL-induced osteoclast differentiation (Western blot); format: cell-based, mouse; conditions: RAW264.7, peptide 50 and 100 μg/ml with RANKL, day 1 of induction, FIG. 11
# Experimental: Mouse RAW264. […] After removing the medium on day 1 of induction, cells were harvested, a cell lysate was prepared, and Western blot was performed using antibodies (Millipore, USA) against NFATc1 protein.
# [7] = system: human C28/12 chondrocyte cell line; assay: ECM production in three-dimensional culture of chondrocytes (alginate beads, alcian blue or toluidine blue); format: cell-based; conditions: peptide 100 and 150 μg/ml, day 9, FIG. 4
# Experimental: Human-derived chondrocytes were treated with the peptide containing the amino acid sequence of SEQ ID NO: 1 in three-dimensional culture, and then it was confirmed whether there was an increase in the formation of glycosaminoglycan, which is an ECM component.
# To this end, 3×10^6 cells of human C28/12 chondrocyte cell line were suspended in 1 ml of an alginate solution (1.25% alginate, 20 mM HEPES, 150 mM Nacl, pH 7.4), and the alginate solution containing the cells were added dropwise to a polymerization solution (100 mM CaCl2), 10 mM HEPES, pH 7.4), thereby preparing beads. The prepared beads were washed twice with DPBS, and then the beads were distributed in a conical tube containing DMEM medium (5% FBS). […] After removing the medium on day 9, 3.7% formaldehyde was added and fixed for 6 hours. Dehydration was performed using a tissue processor (EtOH 70%, 80%, 90%, 100% I, II, xylene I, II in this order for 30 minutes each), and a paraffin block was prepared by embedding. The paraffin block was sectioned on a glass slide to a thickness of […] and then completely dried for 24 hours or longer. The sections were hydrated (Xylene I, II, EtOH 100% I, II, 90%, 80%, 70% in this order for 3 minutes each) and washed three times by being immersed in running water for 10 seconds. […]
# TRAP = conditions: RAW264.7; peptide 10, 30, 50, 100, 150 μg/ml with RANKL; 4 days; absorbance 405 nm; concentration-dependent; FIG. 10C
# Experimental: Mouse RAW264.7 cell line was distributed in a 96-well plate at a density of 1.7×10^3 cells/well and cultured in DMEM medium for 24 hours. After 24 hours, the peptide of SEQ ID NO: 1 was treated at concentrations of 10, 30, 50, 100, and 150 μg/ml together with RANKL, and then differentiation of osteoclasts was induced for 4 days. The cells were treated with 100 μl of a TRAP activity solution (TRAP buffer (0.1 sodium citrate+15 ml of 50 μM sodium tartrate [pH 5.0])+4-nitrophenly phosphate disodium salt hexahydrate, sigma, 1 tablet mix), incubated at 37° C. for 1 hour, and treated with 10 μl of 2 N NaOH. Absorbance at a wavelength of 405 nm was measured using a plate reader.
# [8] = system: mouse RAW264.7 macrophage cell line; assay: Inflammatory cytokine mRNA in macrophages induced by inflammation with TNFα (RT-PCR); format: cell-based; conditions: peptide 100 and 150 μg/ml 1 hour, then 20 nM TNF-α 24 hours, FIG. 8
# Experimental: In addition to the cartilage regenerative activity confirmed in Experimental Examples 1 to 6, in order to confirm the anti-inflammatory effect according to the treatment with the peptide containing the amino acid sequence of SEQ ID NO: 1 of the present invention, mouse RAW264.7 macrophage cell line was treated with TNF to induce inflammation, and the expression levels of TNFα and IL-18, which are inflammatory cytokines, and Cox2 gene, which is an inflammation-inducing marker, were confirmed. The cytokine TNFα was treated to induce inflammation. Since TNFα corresponds to a signal transduction protein related to an inflammatory response, IL-18 corresponds to a cytokine that promotes an inflammatory response, and Cox2 is an inflammation-related protein, a degree of the inflammatory response may be confirmed by measuring the expression levels of TNFα, Cox2, and […] genes. To this end, mouse RAW264.7 cell line was distributed in a 6-well plate at a density of 2×10^5 cells/well and cultured in α-MEM medium containing 10% FBS for 24 hours. The medium was replaced with serum-free α-MEM medium (1% penicillin) and then fasted for 6 hours. […] After 1 hour, the cells were treated with 20 nM TNF-α and incubated for 24 hours. Thereafter, the cells were harvested and RNA was isolated. […]
# COX2 protein = COX2 protein in macrophages induced by inflammation with TNFα (Western blot); format: cell-based, mouse; conditions: RAW264.7, peptide 100 and 150 μg/ml 1 hour, then 20 nM TNF-α 24 hours, FIG. 9
# Experimental: In addition to the results of Experimental Example 7, in order to further confirm the anti-inflammatory effect of the treatment with the peptide containing the amino acid sequence of SEQ ID NO: 1 of the present invention, mouse RAW264. 7 macrophage cell line was treated with TNFα to induce inflammation, and the expression level of COX2 protein, which is an inflammation-inducing marker, was confirmed.
# To this end, mouse RAW264.7 cell line was distributed in a 6-well plate at a density of 2×10^5 cells/well and cultured in α-MEM medium containing 10% FBS for 24 hours. The medium was replaced with serum-free α-MEM medium (1% penicillin) and then fasted for 6 hours. […] After 1 hour, the cells were treated with 20 nM TNF-α and incubated for 24 hours. Thereafter, the cells were harvested, a cell lysate was prepared, and then Western blot was performed using antibodies against the COX2 protein (Cell Signaling Technology, USA).
# SOX9 protein = assay: Expression of ECM regulator SOX9 in mesenchymal stem cells (Western blot); format: cell-based, human; conditions: AD-MSC, peptide 50 and 100 μg/ml, days 3, 7, 14, FIGS. 6A to 6C
# Experimental: Adipose-derived mesenchymal stem cells were treated with the peptide containing the amino acid sequence of SEQ ID NO: 1, and then it was confirmed whether there was an increase in expression of SOX9 protein, which is an ECM regulator.
# At this time, as a positive control (CM), a solution containing dexamethasone (100 nM)+ascorbic acid (50 μM)+proline (40 μM)+TGFβ1 (10 ng/ml)+1X ITS was used. After removing the medium on days 3, 7, and 14, cells were harvested, a cell lysate was prepared, and Western blot was performed using antibodies (Millipore, USA) against the SOX9 and SOX5 proteins.
sequence,measurement,setting,value
ACDWGLWWLC (peptide having cartilage regeneration activity) [SEQ ID NO: 1],formation of actin rings,[1],inhibited the formation of actin rings
same,ECM production (glycosaminoglycan formation) in chondrocytes,[2],promoted ECM production
same,expression of ACAN gene,human AD-MSC cells,promoted the expression
same,expression of COL 11A gene,human AD-MSC cells,promoted the expression
same,expression of COMP gene,human AD-MSC cells,promoted the expression
same,expression of PCP gene,human AD-MSC cells,promoted the expression
same,toxicity to mouse macrophages,"mouse RAW264.7 cell line [3]; CCK-8, FIG. 10B",not toxic
same,CCK-8 absorbance at 450 nm (cell proliferation) versus untreated,mouse RAW264.7 cell line [3]; FIG. 10B,the absorbance was higher
same,chondrogenic differentiation of adipose-derived mesenchymal stem cells,[4],promoted the chondrogenic differentiation
same,production of glycosaminoglycan (ECM component) in adipose-derived mesenchymal stem cells,[4],promoted
same,differentiation into osteoclasts induced by RANKL,mouse RAW264.7 cell line [5],inhibited the differentiation into osteoclasts
same,expression of ACAN (aggrecan) gene,[6],promoted the expression
same,expression of PCP (proteoglycan core protein) gene,[6],promoted the expression
same,expression of collagen type II (COL2A1) gene,[6],promoted the expression
same,production of NFATc1 protein,NFATc1 protein,inhibited the production of NFATc1 protein
same,formation of glycosaminoglycan (ECM component) in three-dimensional culture of chondrocytes,[7],promoted the formation of glycosaminoglycan
same,activity of TRAP (marker of osteoclasts),TRAP,inhibited the activity of TRAP
same,"expression of inflammatory cytokine genes (TNFα, IL-1β, Cox2 mRNA)",[8],inhibited the expression of inflammatory cytokine genes
same,increase in inflammatory proteins (COX2 protein),COX2 protein,inhibited the increase in inflammatory proteins
same,production of SOX9 protein (ECM regulator),SOX9 protein,increased production of SOX9 protein

# Source: patent US20250042941A1, “PEPTIDE HAVING PHYSIOLOGICAL ACTIVITY AND USE THEREOF” (CAREGEN CO., LTD., priority 2021, published 2025)
